# Data from PMC7145665, “A pre-catalytic non-covalent step governs DNA polymerase β fidelity” (Nucleic Acids Research, 2019).
# Key:
# WT pol β = molecular target: T1, WT pol β (Homo sapiens, UniProt P06746); assay: Single turnover polymerase activity (rapid-quench), WT pol β; type: biochemical; details: for Specificity (kpol/KD) / kpol / Kd: templating base C; for D kpol (c/i): kpol(correct)/kpol(incorrect) / D KD (i/c): KD(incorrect)/KD(correct): dGTP correct, dCTP incorrect; for Kd: apparent dNTP dissociation constant
# T1 construct: made in house
# Procedure: (§1) A solution containing 50 nM DNA and 200 nM polymerase was rapidly mixed with varying concentrations of dNTP at 37 °C in 50 mM Tris pH 8.0, 20 mM NaCl, 10 mM MgCl2, 2 mM DTT and 10% glycerol using a KinTek rapid-quench flow apparatus. Reactions were quenched with EDTA and the product was separated from the initial reactant on a 20% polyacrylamide gel containing 8 M urea. Rate of phosphodiester bond formation (kpol) and the apparent dNTP dissociation constant (KD) were extracted as previously reported ([16]). Fidelity was calculated using the catalytic specificity (kpol/KD) for correct (dGTP) and incorrect (dCTP): (kpol/KD)correct/(kpol/KD) incorrect ([37]).
# K289M pol β = molecular target: T2, K289M pol β (Homo sapiens, UniProt P06746, K289M); assay: Single turnover polymerase activity (rapid-quench), K289M pol β; type: biochemical; details: for Specificity (kpol/KD) / kpol / Kd: templating base C; for D kpol (c/i): kpol(correct)/kpol(incorrect) / D KD (i/c): KD(incorrect)/KD(correct): dGTP correct, dCTP incorrect; for Kd: apparent dNTP dissociation constant
# T2 construct: made in house
# Procedure: as §1
# [1] = design: method as in earlier work; details: pKa4 of the leaving group (β,γ-bridging group modified) ref 19, 22, 23; cited from earlier work
# [2] = APC in Control sequence, listed as O
# [3] = Control in APC sequence, listed as O
Compound,Specificity (kpol/KD) (WT pol β; APC in Control sequence) [M⁻¹ s⁻¹],kpol (WT pol β; APC in Control sequence) [s⁻¹],Specificity (kpol/KD) (WT pol β; APC sequence) [M⁻¹ s⁻¹],kpol (WT pol β; APC sequence) [s⁻¹],Specificity (kpol/KD) (WT pol β; Control in APC sequence) [M⁻¹ s⁻¹],kpol (WT pol β; Control in APC sequence) [s⁻¹],Specificity (kpol/KD) (WT pol β; Control sequence) [M⁻¹ s⁻¹],kpol (WT pol β; Control sequence) [s⁻¹],Kd (WT pol β; APC in Control sequence) [µM],Kd (WT pol β; APC sequence) [µM],Kd (WT pol β; Control in APC sequence) [µM],Kd (WT pol β; Control sequence) [µM],Specificity (kpol/KD) (K289M pol β; APC in Control sequence) [M⁻¹ s⁻¹],kpol (K289M pol β; APC in Control sequence) [s⁻¹],kpol (K289M pol β; APC sequence) [s⁻¹],kpol (K289M pol β; Control sequence) [s⁻¹],Kd (K289M pol β; APC in Control sequence) [µM],Kd (K289M pol β; APC sequence) [µM],Kd (K289M pol β; Control in APC sequence) [µM],Kd (K289M pol β; Control sequence) [µM],other results
Nc1nc2c(ncn2[C@H]2C[C@H](O)[C@@H](COP(=O)(O)OP(=O)(O)OP(=O)(O)O)O2)c(=O)[nH]1 [dGTP],8.1e+06,28.5,1.54e+07,35.5,1.3e+07,22.1,6.3e+06,12.6,3.5,2.3,1.7,2,1e+06,1.50,0.90,1.52,1.5,1.3,1,1,"D kpol (c/i): kpol(correct)/kpol(incorrect) (WT pol β; APC in Control sequence): 750; D kpol (c/i): kpol(correct)/kpol(incorrect) (WT pol β; APC sequence): 161; D kpol (c/i): kpol(correct)/kpol(incorrect) (WT pol β; Control in APC sequence): 737; D kpol (c/i): kpol(correct)/kpol(incorrect) (WT pol β; Control sequence): 194; kpol (K289M pol β; [2]): 1.53 s⁻¹; D kpol (c/i): kpol(correct)/kpol(incorrect) (K289M pol β; APC in Control sequence): 30; Specificity (kpol/KD) (K289M pol β; APC sequence): 690000 M⁻¹ s⁻¹; D kpol (c/i): kpol(correct)/kpol(incorrect) (K289M pol β; APC sequence): 18; Specificity (kpol/KD) (K289M pol β; Control in APC sequence): 1.37e+06 M⁻¹ s⁻¹; kpol (K289M pol β; [3]): 1.42 s⁻¹; D kpol (c/i): kpol(correct)/kpol(incorrect) (K289M pol β; Control in APC sequence): 74; Specificity (kpol/KD) (K289M pol β; Control sequence): 1.54e+06 M⁻¹ s⁻¹; D kpol (c/i): kpol(correct)/kpol(incorrect) (K289M pol β; Control sequence): 76; Kd (K289M pol β; [2]): 1.53 µM; Kd (K289M pol β; [3]): 1.04 µM; Kd (K289M pol β; Control sequence, listed as O): 0.99 µM; pKa4 [1]: 8.9"
Nc1nc2c(ncn2C2CC(O)C(COP(=O)(O)OP(=O)(O)C(Cl)P(=O)(O)O)O2)c(=O)[nH]1 (mixture of isomers) [CHCl],2.9e+06,21.7,2.6e+06,20.3,2.1e+06,11.9,1.18e+07,5.90,7.5,7.8,5.6,0.5,140000,1.37,0.80,1.18,10,2,6.5,2.85,Specificity (kpol/KD) (K289M pol β; APC sequence): 400000 M⁻¹ s⁻¹; Specificity (kpol/KD) (K289M pol β; Control in APC sequence): 160000 M⁻¹ s⁻¹; kpol (K289M pol β; Control in APC sequence): 1.01 s⁻¹; Specificity (kpol/KD) (K289M pol β; Control sequence): 410000 M⁻¹ s⁻¹
Nc1nc2c(ncn2C2CC(O)C(COP(=O)(O)OP(=O)(O)C(F)P(=O)(O)O)O2)c(=O)[nH]1 (mixture of isomers) [CHF],4.8e+06,25.1,4.9e+06,36.4,9e+06,19.9,2.4e+06,10.2,5.2,7.5,2.2,4.2,1.31e+06,1.36,0.90,1.50,1.04,1.6,1.2,1.3,Specificity (kpol/KD) (K289M pol β; APC sequence): 560000 M⁻¹ s⁻¹; Specificity (kpol/KD) (K289M pol β; Control in APC sequence): 1.25e+06 M⁻¹ s⁻¹; kpol (K289M pol β; Control in APC sequence): 1.50 s⁻¹; Specificity (kpol/KD) (K289M pol β; Control sequence): 1.15e+06 M⁻¹ s⁻¹
Nc1ccn([C@H]2C[C@H](O)[C@@H](COP(=O)(O)OP(=O)(O)OP(=O)(O)O)O2)c(=O)n1 [dCTP],,0.04,,0.22,,0.03,,0.07,389,340,456,1280,,0.05,0.05,0.02,766,267,758,778,D KD (i/c): KD(incorrect)/KD(correct) (WT pol β; APC in Control sequence): 111; D KD (i/c): KD(incorrect)/KD(correct) (WT pol β; APC sequence): 148; D KD (i/c): KD(incorrect)/KD(correct) (WT pol β; Control in APC sequence): 268; D KD (i/c): KD(incorrect)/KD(correct) (WT pol β; Control sequence): 639; D KD (i/c): KD(incorrect)/KD(correct) (K289M pol β; APC in Control sequence): 511; D KD (i/c): KD(incorrect)/KD(correct) (K289M pol β; APC sequence): 205; kpol (K289M pol β; Control in APC sequence): 0.02 s⁻¹; D KD (i/c): KD(incorrect)/KD(correct) (K289M pol β; Control in APC sequence): 758; D KD (i/c): KD(incorrect)/KD(correct) (K289M pol β; Control sequence): 778
Nc1nc2c(ncn2[C@H]2C[C@H](O)[C@@H](COP(=O)(O)OP(=O)(O)CP(=O)(O)O)O2)c(=O)[nH]1 [CH2],900000,6.30,1.3e+06,9.00,1.4e+06,3.10,4.3e+06,2.20,6.9,7.1,2.2,0.5,250000,1.17,0.70,0.58,4.75,1.7,1.6,2.2,Specificity (kpol/KD) (K289M pol β; APC sequence): 410000 M⁻¹ s⁻¹; Specificity (kpol/KD) (K289M pol β; Control in APC sequence): 380000 M⁻¹ s⁻¹; kpol (K289M pol β; Control in APC sequence): 0.61 s⁻¹; Specificity (kpol/KD) (K289M pol β; Control sequence): 260000 M⁻¹ s⁻¹
